# Data from US12590100B2, “Tetrahydro-spiroindoline-pyrrolopyrrole-triones inhibitors of the NRF2-β-TrCP interaction for use in the treatment of fatty liver disease” (Universidad Autonoma De Madrid, priority 2021, dated 2026).
# Biological target: SCF-βTrCP / NRF2 (Homo sapiens, UniProt Q9Y297)
# Experiment: In vitro ubiquitination of phosphorylated NRF2 by the βTrCP complex
# Type: biochemical
# Conditions: for ubiquitination (polyubiquitination) of NRF2 by βTrCP: PHAR 3 μM, 1 hour at 25° C., western blot
# Experimental: In vitro kinase assay and in vitro ubiquitination. For the recognition and degradation of NRF2 by βTrCP, the serines 335, 338, 342 and 347 located at the Neh6 domain of NRF2 need to be previously phosphorylated by the kinase GSK-3β (FIG. 1). Therefore, to obtain the phosphorylated substrate, 20 ng recombinant NRF2-DETGE was used together with 0.5 μg of recombinant GSK-3β incubated at 30° C. for 60 min. The result was analyzed by western blot. After confirming the existence of phosphorylation in the residues of interest, an in vitro ubiquitination assay was carried out using the recombinant proteins that make up the E3 ubiquitin ligase complex. The ubiquitination reaction was carried out using: ATP (2 mM), […], SCF-βTrCP (450 nM), and non-phosphorylated or phosphorylated NRF2 (20 ng), in a specific ubiquitination buffer (30 mM Tris pH 7.6, 5 mM MgCl2, 2 mM dithiothreitol, 100 mM NaCl). Before the ubiquitination reactions, the E1, Cdc34b, and ubiquitin components were incubated together for 2 min to allow the E2 thioester bond to form. The reactions were incubated for 1 hour at 25° C. in the presence or absence of PHAR (3 μM) in order to determine whether or not PHAR inhibits ubiquitination by βTrCP. […] The PI3K/AKT signaling pathway is inhibited, and therefore GSK-3β is activated with the PI3K inhibitor, LY294002. As a result, NRF2 is phosphorylated by GSK-3β and marked for degradation by means of interaction with β-TrCP. Therefore, if PHAR is capable of inhibiting βTrCP-NRF2 interaction, the NRF2 levels will remain stable independently of the activation and phosphorylation by GSK-3β. […]
# FIG. 6. […] Phosphorylation at residues 335, 338, 342 and 347 was analyzed by western blot. […] Polyubiquitinated NRF2 was detected by western blot with anti-ubiquitin antibody. […] E), densitometric analysis of NRF2 protein levels of the representative immunoblot of (D), expressed as a ratio of NRF2/GAPDH. […] G), densitometric analysis of NRF2 and HO1 protein levels of the representative immunoblots of (F), expressed as a ratio of NRF2 and HO1/GAPDH. […]
# Sequence of SCF-βTrCP / NRF2 (Q9Y297 whole entry): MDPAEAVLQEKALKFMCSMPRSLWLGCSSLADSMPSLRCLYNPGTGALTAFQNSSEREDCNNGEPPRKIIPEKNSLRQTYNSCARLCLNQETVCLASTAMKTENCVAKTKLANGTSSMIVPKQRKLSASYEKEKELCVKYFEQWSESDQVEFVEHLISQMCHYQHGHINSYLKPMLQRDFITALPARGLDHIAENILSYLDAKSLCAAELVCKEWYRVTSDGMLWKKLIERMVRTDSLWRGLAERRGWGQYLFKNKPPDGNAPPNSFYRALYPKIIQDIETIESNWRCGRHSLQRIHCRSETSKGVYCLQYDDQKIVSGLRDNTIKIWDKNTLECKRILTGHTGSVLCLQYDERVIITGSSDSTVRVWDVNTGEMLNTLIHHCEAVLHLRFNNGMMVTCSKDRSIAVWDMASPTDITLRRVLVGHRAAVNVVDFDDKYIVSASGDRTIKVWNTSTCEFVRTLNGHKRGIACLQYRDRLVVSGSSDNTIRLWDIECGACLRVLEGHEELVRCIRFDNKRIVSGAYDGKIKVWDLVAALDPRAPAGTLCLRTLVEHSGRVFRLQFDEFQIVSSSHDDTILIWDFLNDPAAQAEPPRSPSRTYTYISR
# Sequence of SCF-βTrCP / NRF2 (P63208 whole entry partner): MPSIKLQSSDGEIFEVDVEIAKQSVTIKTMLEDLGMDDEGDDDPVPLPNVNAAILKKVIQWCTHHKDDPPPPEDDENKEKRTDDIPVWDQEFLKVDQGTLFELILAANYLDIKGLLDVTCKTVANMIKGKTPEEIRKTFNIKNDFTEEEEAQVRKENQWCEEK
# Sequence of SCF-βTrCP / NRF2 (Q13616 whole entry partner): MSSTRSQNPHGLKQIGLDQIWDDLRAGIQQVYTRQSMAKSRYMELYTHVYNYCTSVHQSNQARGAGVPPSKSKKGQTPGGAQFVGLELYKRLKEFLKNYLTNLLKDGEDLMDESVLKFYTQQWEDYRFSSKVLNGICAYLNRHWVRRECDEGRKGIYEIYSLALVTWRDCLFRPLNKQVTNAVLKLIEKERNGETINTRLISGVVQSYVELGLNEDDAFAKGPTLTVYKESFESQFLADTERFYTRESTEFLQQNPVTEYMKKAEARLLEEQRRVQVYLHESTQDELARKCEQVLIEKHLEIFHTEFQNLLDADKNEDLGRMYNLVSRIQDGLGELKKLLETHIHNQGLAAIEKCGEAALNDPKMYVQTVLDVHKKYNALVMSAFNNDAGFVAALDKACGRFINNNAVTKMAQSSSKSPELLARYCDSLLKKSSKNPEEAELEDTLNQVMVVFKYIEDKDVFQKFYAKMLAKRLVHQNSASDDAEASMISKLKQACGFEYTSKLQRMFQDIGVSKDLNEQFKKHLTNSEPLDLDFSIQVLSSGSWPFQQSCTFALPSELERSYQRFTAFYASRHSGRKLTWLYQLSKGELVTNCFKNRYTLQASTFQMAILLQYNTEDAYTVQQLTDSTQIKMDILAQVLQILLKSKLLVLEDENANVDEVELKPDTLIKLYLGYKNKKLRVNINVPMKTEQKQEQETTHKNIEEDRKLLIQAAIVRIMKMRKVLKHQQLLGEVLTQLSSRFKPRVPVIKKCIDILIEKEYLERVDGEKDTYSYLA
# Sequence of SCF-βTrCP / NRF2 (P62877 whole entry partner): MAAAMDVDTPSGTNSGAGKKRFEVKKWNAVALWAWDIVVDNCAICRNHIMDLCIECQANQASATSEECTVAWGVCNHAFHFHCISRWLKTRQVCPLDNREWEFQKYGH
smiles,measurement,setting,value
O=C1[C@@H]2[C@H](Cc3c[nH]c4ccccc34)N[C@]3(C(=O)Nc4ccc(Cl)cc43)[C@@H]2C(=O)N1c1ccc2c(c1)OCCO2 [PHAR],ubiquitination (polyubiquitination) of NRF2 by βTrCP,,prevents the ubiquitination of NRF2
same,ubiquitination (polyubiquitination) of NRF2 by βTrCP,listed as PH,polyubiquitination was considerably lower
same,concentration from which substrate polyubiquitination starts to be reduced,dose curve 3-3000 nM,100 nM
